# From publication PMC8878721, “Screening of TNFR1 Binding Peptides from Deinagkistrodon acutus Venom through Phage Display” (Toxins, 2022)
# Experiments:
# [1] = tested on: pro-inflammatory cytokines; settings: snake venom extracts; ref [2],[3],[4]; cited from earlier work
# Text: Snake venoms have been used as traditional Chinese medicines for hundreds of years, and they have a positive effect on autoimmune inflammatory diseases such as rheumatoid arthritis. However, their active, effective ingredients and their mechanisms of action are not fully understood yet. Studies have shown that snake venom is a mixture of proteins and peptides with various biological activities, including anti-tumor, anti-inflammatory, anti-stroke, and analgesic activities. For example, snake venom extracts such as Cathelicidin-BF and Cathelicidin-CATH can inhibit pro-inflammatory cytokin ...
# [2] = Dissolution test of DAvp-1; type: physicochemical
# Experimental: DAvp-1, which appeared in the white lyophilized powder, was synthesized following the solid phase peptide synthesis (SPPS) Fmoc protocol, and Mass Spectrometer (MS) and HPLC were used for quantitative and qualitative verification. A purity of 95.346% was determined with the HPLC methodology (Figure 3A). The mass-to-charge ratios of [M+8H]^8+, [M+7H]^7+, [M+6H]^6+, and [M+5H]^5+ were 594.5, 679.3, 792.3, and 950.5, respectively, and the highest peak of [M+5H]^5+ was selected to calculate the molecular weight (MW). The formula is (1) MW=m/z×C−C(1) where MW is the molecular weight, m/z is the mass-to-charge ratio, and C is the charge.
# Homologous modeling has been developed for predicting the 3D structure of proteins and peptides originating from various organisms, and this most accurate modeling method was widely used in structural biology. Software simulations were applied to test if there was a positive interaction with TNFR1 [37]. […] A promising solubility is conducive to the development of drugs.
Compound,effect on pro-inflammatory cytokines [1],"solubility in PBS ([2]; 1 × phosphate buffer saline (PBS) (pH 7.1), lyophilized powder, qualitative)","solubility in DMSO ([2]; dimethyl sulfoxide (DMSO), lyophilized powder, qualitative)","solubility (overall) ([2]; dissolution test, in words)","solubility in ultrapure water ([2]; ultrapure water, lyophilized powder, qualitative)"
Cathelicidin-BF,can inhibit pro-inflammatory cytokines,–,–,–,–
CSCC[C@H](NC(=O)[C@H](CCCNC(=N)N)NC(=O)CNC(=O)[C@H](CCCNC(=N)N)NC(=O)[C@H](CC(C)C)NC(=O)[C@@H](NC(=O)[C@H](CC(C)C)NC(=O)[C@H](CO)NC(=O)[C@@H](N)CC(N)=O)C(C)C)C(=O)N[C@@H](CCCNC(=N)N)C(=O)N[C@@H](CC(=O)O)C(=O)N[C@H](C(=O)N[C@@H](CCCCN)C(=O)N[C@H](C(=O)N[C@@H](CCCNC(=N)N)C(=O)N[C@@H](CC(=O)O)C(=O)N[C@@H](CC(=O)O)C(=O)NCC(=O)N[C@@H](CCCNC(=N)N)C(=O)N[C@@H](CCCCN)C(=O)N[C@@H](CO)C(=O)N1CCC[C@H]1C(=O)N[C@@H](CO)C(=O)N[C@@H](Cc1c[nH]cn1)C(=O)N[C@@H](Cc1c[nH]cn1)C(=O)N[C@@H](CO)C(=O)N[C@@H](CCCCN)C(=O)N[C@@H](Cc1ccccc1)C(=O)N[C@@H](CO)C(=O)NCC(=O)NCC(=O)N[C@H](C(=O)N[C@@H](CCCNC(=N)N)C(=O)N[C@@H](CC(N)=O)C(=O)N[C@@H](Cc1c[nH]c2ccccc12)C(=O)N[C@@H](CCC(N)=O)C(=O)N[C@@H](CCCCN)C(=O)N[C@@H](CC(C)C)C(=O)N[C@H](C(=O)N[C@@H](CCCCN)C(=O)N[C@@H](CC(C)C)C(=O)O)C(C)C)[C@@H](C)O)C(C)C)C(C)C [DAvp-1],–,could be dissolved,could be dissolved,good solubility,could be dissolved
